This test has as its target T1, Human Fibroblast Activation Protein (FAP) (Homo sapiens, UniProt Q12884).
T1 sequence (Q12884 1-760): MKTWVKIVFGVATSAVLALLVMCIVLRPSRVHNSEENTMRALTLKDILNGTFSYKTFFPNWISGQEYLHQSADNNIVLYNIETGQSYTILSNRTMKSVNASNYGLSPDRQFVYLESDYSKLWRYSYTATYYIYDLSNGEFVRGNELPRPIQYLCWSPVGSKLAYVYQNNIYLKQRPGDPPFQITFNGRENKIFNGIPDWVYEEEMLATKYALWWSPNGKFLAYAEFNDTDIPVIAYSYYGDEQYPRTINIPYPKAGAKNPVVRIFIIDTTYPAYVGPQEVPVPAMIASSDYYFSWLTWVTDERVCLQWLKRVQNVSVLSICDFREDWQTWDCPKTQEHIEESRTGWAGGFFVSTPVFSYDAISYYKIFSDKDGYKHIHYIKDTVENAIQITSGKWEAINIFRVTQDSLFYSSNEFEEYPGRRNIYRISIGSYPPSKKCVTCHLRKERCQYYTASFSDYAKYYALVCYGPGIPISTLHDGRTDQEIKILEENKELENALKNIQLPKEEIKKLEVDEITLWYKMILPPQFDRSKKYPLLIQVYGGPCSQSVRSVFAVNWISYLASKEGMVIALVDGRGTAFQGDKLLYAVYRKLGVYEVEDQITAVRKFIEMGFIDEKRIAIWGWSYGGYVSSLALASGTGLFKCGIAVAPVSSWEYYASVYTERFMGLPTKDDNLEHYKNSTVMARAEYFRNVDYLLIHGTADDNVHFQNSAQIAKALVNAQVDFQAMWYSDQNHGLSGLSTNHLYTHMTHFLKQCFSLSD
The experiment in a line: Enzyme inhibition assay against human FAP (substrate Z-GP-AMC), Example 1. The format is biochemical. Particulars: human FAP 5 ng/well, 50 μM Z-GP-AMC; Ki from IC50 by Cheng-Prusoff. The protocol:
Binding Affinity Against Human Fibroblast Activation Protein (FAP)
An enzyme inhibition assay was performed to determine IC50 values and then the Cheng-Prusoff equation used to calculate the Ki given a known Km of the substrate Z-GP-AMC for FAP. To perform the assay, FAP (5 ng/well) and the test peptide at varying concentrations (i.e. 10^−6 to 10^−12) were incubated in a black 96-well plate for 10 minutes at RT on a shaker plate. Then, the substrate Z-GP-AMC was added to give a final concentration of 50 μM. The total reaction volume per well was 100 μL The reaction was allowed to incubate at RT on a shaker plate for 1 hour protected from light, and then fluorescence read with a BioTek Synergy LX plate reader at an ex/em (360/40 and 460/40). Experiments were performed in at least duplicate, and controls of buffer only, buffer and FAP enzyme, and buffer with substrate and FAP enzyme only were included for comparison. The buffer used for the assay was 50 mM Tris-HCl, 1M NaCl, and 1 mg/mL BSA, pH=7.5. Data was plotted in GraphPad Prism and non-linear regression used to calculate IC50 values. The compounds tested and Ki values of each were as follows: […]

*1 amine or outer side, *2 acyl side, *3 side chain or, on linkers, in order; H or OH if unused. Where a SMILES comes first, the peptide text is derived from it. Bridges are numbered along the chain shown (N, C = ends). oXylylene = c1ccc(C[*:2])c(C[*:1])c1

One may read the Ki as the dissociation constant of the complex between target and ligand, obtained from inhibition or displacement. As for `CC(=O)NCC(=O)N[C@H]1CSCc2ccccc2CSC[C@@H](C(N)=O)NC(=O)[C@H](Cc2c[nH]c3ccccc23)NC(=O)[C@H](Cc2c[nH]c3ccccc23)NC(=O)[C@H](CCC(N)=O)NC(=O)[C@H](CCC(=O)O)NC(=O)[C@H](Cc2ccccc2)NC(=O)[C@@H]2CCCN2C(=O)[C@H]([C@@H](C)O)NC1=O` [VMT-FAP-1-1, Ac-G[C(oXdB)TPFEQWWC]-NH2] (Ac-GCTPFEQWWC-NH2; linker 2-10 via oXylylene), the Ki was found to be 10.4 nM.
Then `CC(=O)N[C@@H](CCCNC(=N)N)C(=O)N[C@H]1CSCc2ccccc2CSC[C@@H](C(N)=O)NC(=O)[C@H](Cc2c[nH]c3ccccc23)NC(=O)[C@H](Cc2c[nH]c3ccccc23)NC(=O)[C@H](CCC(N)=O)NC(=O)[C@H](CCC(=O)O)NC(=O)[C@H](Cc2ccccc2)NC(=O)[C@@H]2CCCN2C(=O)[C@H]([C@@H](C)O)NC1=O` [VMT-FAP-1-13, Ac-R[C(oXdB)TPFEQWWC]-NH2] (Ac-RCTPFEQWWC-NH2; linker 2-10 via oXylylene), with 2.82 nM.
Then `CC(=O)N[C@@H](CC(=O)O)C(=O)N[C@H]1CSCc2ccccc2CSC[C@@H](C(N)=O)NC(=O)[C@H](Cc2c[nH]c3ccccc23)NC(=O)[C@H](Cc2c[nH]c3ccccc23)NC(=O)[C@H](CCC(N)=O)NC(=O)[C@H](CCC(=O)O)NC(=O)[C@H](Cc2ccccc2)NC(=O)[C@@H]2CCCN2C(=O)[C@H]([C@@H](C)O)NC1=O` [VMT-FAP-1-14, Ac-D[C(oXdB)TPFEQWWC]-NH2] (Ac-DCTPFEQWWC-NH2; linker 2-10 via oXylylene), with 0.36 nM.
The value for `CC(=O)N[C@@H](CC(N)=O)C(=O)N[C@H]1CSCc2ccccc2CSC[C@@H](C(N)=O)NC(=O)[C@H](Cc2c[nH]c3ccccc23)NC(=O)[C@H](Cc2c[nH]c3ccccc23)NC(=O)[C@H](CCC(N)=O)NC(=O)[C@H](CCC(=O)O)NC(=O)[C@H](Cc2ccccc2)NC(=O)[C@@H]2CCCN2C(=O)[C@H]([C@@H](C)O)NC1=O` [VMT-FAP-1-17, Ac-N[C(oXdB)TPFEQWWC]-NH2] (Ac-NCTPFEQWWC-NH2; linker 2-10 via oXylylene) was 10.7 nM; that for `CC(=O)N[C@@H](CC(N)=O)C(=O)N[C@H]1CSCc2ccccc2CSC[C@@H](C(N)=O)NC(=O)[C@H](Cc2c[nH]c3ccccc23)NC(=O)[C@H](Cc2c[nH]c3ccccc23)NC(=O)[C@H](CCC(N)=O)NC(=O)[C@H](CCC(=O)O)NC(=O)[C@H](Cc2c[nH]c3ccccc23)NC(=O)[C@@H]2CCCN2C(=O)[C@H]([C@@H](C)O)NC1=O` [VMT-FAP-1-62, Ac-N[C(oXdB)TPWEQWWC]-NH2] (Ac-NCTPWEQWWC-NH2; linker 2-10 via oXylylene) was 0.46 nM.
For `CC(=O)N[C@@H](CC(N)=O)C(=O)N[C@H]1CSCc2ccccc2CSC[C@@H](C(N)=O)NC(=O)[C@H](Cc2c[nH]c3ccccc23)NC(=O)[C@H](Cc2c[nH]c3ccccc23)NC(=O)[C@H](CCC(N)=O)NC(=O)[C@H](CCC(=O)O)NC(=O)[C@H](Cc2c[nH]cn2)NC(=O)[C@@H]2CCCN2C(=O)[C@H]([C@@H](C)O)NC1=O` [VMT-FAP-1-64, Ac-N[C(oXdB)TPHEQWWC]-NH2] (Ac-NCTPHEQWWC-NH2; linker 2-10 via oXylylene), the Ki is 10.7 nM.
`CC[C@H](C)[C@@H]1NC(=O)[C@H](CCC(=O)O)NC(=O)[C@H](Cc2ccccc2)NC(=O)[C@@H]2CCCN2C(=O)[C@H]([C@@H](C)O)NC(=O)[C@@H](NC(=O)[C@H](CO)NC(C)=O)CSCc2ccccc2CSC[C@@H](C(N)=O)NC(=O)[C@H](Cc2c[nH]c3ccccc23)NC(=O)[C@H](Cc2c[nH]c3ccccc23)NC1=O` [VMT-FAP-1-94, Ac-S[C(oXdB)TPFEIWWC]-NH2] (Ac-SCTPFEIWWC-NH2; linker 2-10 via oXylylene): the Ki came to 5.01 nM.
Then `CC(=O)N[C@@H](CO)C(=O)N[C@H]1CSCc2ccccc2CSC[C@@H](C(N)=O)NC(=O)[C@H](Cc2c[nH]c3ccccc23)NC(=O)[C@H](Cc2c[nH]c3ccccc23)NC(=O)[C@H](Cc2c[nH]cn2)NC(=O)[C@H](CCC(=O)O)NC(=O)[C@H](Cc2ccccc2)NC(=O)[C@@H]2CCCN2C(=O)[C@H]([C@@H](C)O)NC1=O` [VMT-FAP-1-101, Ac-S[C(oXdB)TPFEHWWC]-NH2] (Ac-SCTPFEHWWC-NH2; linker 2-10 via oXylylene), with 11.2 nM; and `CC(=O)N[C@@H](CO)C(=O)N[C@H]1CSCc2ccccc2CSC[C@@H](C(N)=O)NC(=O)[C@H](Cc2c[nH]c3ccccc23)NC(=O)[C@H](Cc2c[nH]c3ccccc23)NC(=O)[C@H](CC(=O)O)NC(=O)[C@H](CCC(=O)O)NC(=O)[C@H](Cc2ccccc2)NC(=O)[C@@H]2CCCN2C(=O)[C@H]([C@@H](C)O)NC1=O` [VMT-FAP-1-104, Ac-S[C(oXdB)TPFEDWWC]-NH2] (Ac-SCTPFEDWWC-NH2; linker 2-10 via oXylylene), with 1.83 nM; and `CC(=O)N[C@@H](CO)C(=O)N[C@H]1CSCc2ccccc2CSC[C@@H](C(N)=O)NC(=O)[C@H](Cc2c[nH]c3ccccc23)NC(=O)[C@H](Cc2c[nH]c3ccccc23)NC(=O)[C@H](CCC(=O)O)NC(=O)[C@H](CCC(=O)O)NC(=O)[C@H](Cc2ccccc2)NC(=O)[C@@H]2CCCN2C(=O)[C@H]([C@@H](C)O)NC1=O` [VMT-FAP-1-105, Ac-S[C(oXdB)TPFEEWWC]-NH2] (Ac-SCTPFEEWWC-NH2; linker 2-10 via oXylylene), with 0.38 nM.
The value for `CC(=O)N[C@@H](CO)C(=O)N[C@H]1CSCc2ccccc2CSC[C@@H](C(N)=O)NC(=O)[C@H](Cc2c[nH]c3ccccc23)NC(=O)[C@H](Cc2c[nH]c3ccccc23)NC(=O)[C@H](CCC(N)=O)NC(=O)[C@H](CCC(=O)O)NC(=O)[C@H](Cc2ccccc2)NC(=O)[C@@H]2CCCN2C(=O)[C@H]([C@@H](C)O)NC1=O` [VMT-FAP-2-12, Ac-S[C(oXdB)TPFEQWWC]-NH2] (Ac-SCTPFEQWWC-NH2; linker 2-10 via oXylylene) was 0.55 nM; that for `C[C@H](N)C(=O)N[C@H]1CSCc2ccccc2CSC[C@@H](C(N)=O)NC(=O)[C@H](Cc2c[nH]c3ccccc23)NC(=O)[C@H](Cc2c[nH]c3ccccc23)NC(=O)[C@H](CCC(N)=O)NC(=O)[C@H](CCC(=O)O)NC(=O)[C@H](Cc2ccccc2)NC(=O)[C@@H]2CCCN2C(=O)[C@H]([C@@H](C)O)NC1=O` [VMT-FAP-2-19, A[C(oXdB)TPFEQWWC]-NH2] (H-ACTPFEQWWC-NH2; linker 2-10 via oXylylene; N-terminus assumed) was 0.45 nM.
Then `C[C@@H]1NC(=O)[C@H](CCC(=O)O)NC(=O)[C@H](Cc2ccccc2)NC(=O)[C@@H]2CCCN2C(=O)[C@H]([C@@H](C)O)NC(=O)[C@@H](NC(=O)[C@@H](N)CO)CSCc2ccccc2CSC[C@@H](C(N)=O)NC(=O)[C@H](Cc2c[nH]c3ccccc23)NC(=O)[C@H](Cc2c[nH]c3ccccc23)NC1=O` [VMT-FAP-2-23, S[C(oXdB)TPFEAWWC]-NH2] (H-SCTPFEAWWC-NH2; linker 2-10 via oXylylene; N-terminus assumed), with 0.29 nM; and `CC(=O)N[C@@H](CO)C(=O)N[C@H]1CSCc2ccccc2CSC[C@@H](C(N)=O)NC(=O)[C@H](Cc2ccc(O)cc2)NC(=O)[C@H](Cc2c[nH]c3ccccc23)NC(=O)[C@H](CCC(N)=O)NC(=O)[C@H](CCC(=O)O)NC(=O)[C@H](Cc2ccccc2)NC(=O)[C@@H]2CCCN2C(=O)[C@H]([C@@H](C)O)NC1=O` [VMT-FAP-2-28, Ac-S[C(oXdB)TPFEQWYC]-NH2] (Ac-SCTPFEQWYC-NH2; linker 2-10 via oXylylene), with 2.29 nM.

The record behind these values is patent US12514938B2, “Fibroblast activation protein targeting peptides” (PERSPECTIVE THERAPEUTICS, INC., priority 2023, dated 2026).
